Experimental data: patent US20170065556A1, “ORAL FORMULATIONS OF PYRROLIDINE DERIVATIVES” (OBSEVA S.A., priority 2013, published 2017)

Legend:
[1] = Qualitative solubility/crystallisation tests in solvents (15 mg scale); format: physicochemical
[2] = female, human, in vivo, 20 h
Method: Twelve healthy Caucasian women aged 54-62 years (mean 58.3 years), with a weight of 51 to 67 kg (mean 60.6 kg±5.1) and a body mass index ranging between 19.4-25.5 kg/m2 (mean 23.12 kg/m2±2.05) were enrolled. They were administered, on three separate treatment periods of one week, either two consecutive (3Z,5S) doses of 600 mg/day (administered to subjects using 3 dispersible tablets of 200 mg in 150 ml of water) or two intramuscular injections of 12 mg/day betamethasone or both drugs in combination.
Therefore, pharmacokinetic parameters of the treatment with (3Z,5S) dispersible tablets were calculated for 12 subjects, whereas pharmacokinetic parameters of the combination treatment were assessed for 11 participants.
During each treatment period of one week, blood samples were collected for the analysis of (3Z,5S) and betamethasone at time points 0 (pre-dose) and at 0.25, 0.5, 0.75, 1, 1.5, 2, 3, 4, 6, 8, 10, 12, 16, 20 and 24 hours after first dose on day 1. The plasma was prepared and stored below −20° C. All samples were analysed using validated LC-MS/MS methods. For the analysis of (3Z,5S), the lower limit of quantification was 1.0 ng/ml. For betamethasone analyses, the lower limit of quantification was 0.5 ng/ml.
Pharmacokinetic parameters were estimated by non-compartmental methods using the Phoenix® WinNonLin® version 6.3 (Pharsight). […]

Qualitative solubility, Dissolves in ([1]; solvent DIPE): 40 vol hot | Qualitative solubility, Dissolves in ([1]; solvent IPA): 4 vol hot | Qualitative solubility, Dissolves in ([1]; solvent MIBK): 4 vol hot | Qualitative solubility, Dissolves in ([1]; solvent THF): 4 vol cold | Qualitative solubility, Dissolves in / Comment ([1]; solvent heptanes): insoluble in 20 vol | Qualitative solubility, Dissolves in ([1]; solvent tBuOH): 6 vol hot | Qualitative solubility, Dissolves in ([1]; solvent toluene): 2 vol cold | % of Cmax [2]: 25%
SMILES: CO/N=C1/C[C@@H](CO)N(C(=O)c2ccc(-c3ccccc3C)cc2)C1 [(3Z,5S), (3Z,5S)-5-(hydroxymethyl)-1-[(2′-methyl-1,1′-biphenyl-4-yl)carbonyl]pyrrolidin-3-one-O-methyloxime]
